Experimental data reported in the NIST ThermoML archive (doi:10.1021/je0501843).

Experiment: wn = mass fraction of the nth substance listed
Settings: Fluid (supercritical or subcritical phases), isochoric method, w1 = 0.5001

FC(F)C(F)(F)F [pentafluoroethane] + FCF
Settings | mass density [kg/m3]
380 K, 9183 kPa | 525.3
380 K, 9715 kPa | 570.7
380 K, 10331 kPa | 614
380 K, 13988 kPa | 759.2
381 K, 8790 kPa | 475.5
381 K, 9306 kPa | 525.2
381 K, 9856 kPa | 570.7
381 K, 10492 kPa | 614
381 K, 14227 kPa | 759.2
382 K, 8897 kPa | 475.5
382 K, 9432 kPa | 525.2
382 K, 9996 kPa | 570.6
382 K, 10651 kPa | 613.9
382 K, 14466 kPa | 759.1
383 K, 9005 kPa | 475.4
383 K, 9553 kPa | 525.2
383 K, 10136 kPa | 570.6
383 K, 10808 kPa | 613.9
383 K, 14706 kPa | 759
384 K, 9112 kPa | 475.4
384 K, 9679 kPa | 525.2
384 K, 10277 kPa | 570.6
384 K, 10967 kPa | 613.8
384 K, 14944 kPa | 759
385 K, 9219 kPa | 475.4
385 K, 9804 kPa | 525.1
385 K, 10418 kPa | 570.5
385 K, 11125 kPa | 613.8
385 K, 15188 kPa | 758.9
386 K, 9326 kPa | 475.4
386 K, 9929 kPa | 525.1
386 K, 10558 kPa | 570.5
386 K, 11283 kPa | 613.8
386 K, 15426 kPa | 758.9
387 K, 9434 kPa | 475.3
387 K, 10051 kPa | 525.1
387 K, 10699 kPa | 570.5
387 K, 11442 kPa | 613.7
387 K, 15666 kPa | 758.8
388 K, 9540 kPa | 475.3
388 K, 10174 kPa | 525
388 K, 10840 kPa | 570.4
388 K, 11602 kPa | 613.7
388 K, 15904 kPa | 758.7
389 K, 9649 kPa | 475.3
389 K, 10296 kPa | 525
389 K, 10980 kPa | 570.4
389 K, 11761 kPa | 613.6
389 K, 16147 kPa | 758.7
390 K, 9756 kPa | 475.3
390 K, 10421 kPa | 525
390 K, 11124 kPa | 570.3
390 K, 11922 kPa | 613.6
390 K, 16388 kPa | 758.6
391 K, 9862 kPa | 475.2
391 K, 10547 kPa | 524.9
391 K, 11263 kPa | 570.3
391 K, 12081 kPa | 613.6
391 K, 16627 kPa | 758.6
392 K, 9969 kPa | 475.2
392 K, 10670 kPa | 524.9
392 K, 11403 kPa | 570.3
392 K, 12239 kPa | 613.5
392 K, 16868 kPa | 758.5
393 K, 10077 kPa | 475.2
393 K, 10795 kPa | 524.9
393 K, 11546 kPa | 570.2
393 K, 12400 kPa | 613.5
393 K, 17110 kPa | 758.4
394 K, 10185 kPa | 475.2
394 K, 10920 kPa | 524.9
394 K, 11688 kPa | 570.2
394 K, 12560 kPa | 613.4
394 K, 17351 kPa | 758.4
395 K, 10292 kPa | 475.1
395 K, 11045 kPa | 524.8
395 K, 11829 kPa | 570.2
395 K, 12720 kPa | 613.4
395 K, 17590 kPa | 758.3
396 K, 10400 kPa | 475.1
396 K, 11168 kPa | 524.8
396 K, 11972 kPa | 570.1
396 K, 12880 kPa | 613.4
396 K, 17831 kPa | 758.3
397 K, 10508 kPa | 475.1
397 K, 11292 kPa | 524.8
397 K, 12113 kPa | 570.1
397 K, 13040 kPa | 613.3
397 K, 18073 kPa | 758.2
398 K, 10616 kPa | 475
398 K, 11415 kPa | 524.7
398 K, 12256 kPa | 570.1
398 K, 13199 kPa | 613.3
398 K, 18315 kPa | 758.1
399 K, 10723 kPa | 475
399 K, 11538 kPa | 524.7
399 K, 12395 kPa | 570
399 K, 13361 kPa | 613.2
399 K, 18556 kPa | 758.1
